Data published in patent US20250250606A1, “BIOELECTROCHEMICAL DETERMINATION OF LACTATE” (DIRECTSENS GMBH, priority 2022, published 2025).

Tests used:
[1] = molecular target: T1, Lactobacillus helsingborgensis lactate dehydrogenase LhLDH, SEQ ID NO: 13, N-terminal 6xHis/HRV 3C tag (SEQ ID NO: 250) (Lactobacillus helsingborgensis, UniProt A0A0F4LW09); assay: Apparent steady-state kinetics of L-lactate oxidation with DCIP as electron acceptor; type: biochemical; conditions: L-lactate 0.125 to 64 mM, DCIP 120 μM, 11 mM PBS pH 7.4, 30° C.
T1 sequence (A0A0F4LW09 1-409): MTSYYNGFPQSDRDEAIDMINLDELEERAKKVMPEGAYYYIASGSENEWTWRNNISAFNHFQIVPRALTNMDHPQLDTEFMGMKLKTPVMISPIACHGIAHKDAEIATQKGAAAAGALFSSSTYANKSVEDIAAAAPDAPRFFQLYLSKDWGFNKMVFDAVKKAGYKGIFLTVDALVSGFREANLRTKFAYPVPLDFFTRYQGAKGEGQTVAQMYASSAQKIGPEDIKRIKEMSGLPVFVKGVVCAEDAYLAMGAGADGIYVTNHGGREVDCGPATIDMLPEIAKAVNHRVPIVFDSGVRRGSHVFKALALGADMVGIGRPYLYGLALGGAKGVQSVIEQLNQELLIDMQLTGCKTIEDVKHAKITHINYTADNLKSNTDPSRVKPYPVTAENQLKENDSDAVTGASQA

[2] = tested on: Shigella sp. FC1655 lactate dehydrogenase SsLDH, SEQ ID NO: 74, predicted signal peptide removed, N-terminal 6xHis/HRV 3C tag (SEQ ID NO: 250); conditions: apparent, L-lactate 0.125 to 64 mM, DCIP 120 μM, 11 mM PBS pH 7.4, 30° C.
[3] = molecular target: T2, Lactobacillus johnsonii lactate dehydrogenase LjLDH, SEQ ID NO: 59, N-terminal 6xHis/HRV 3C tag (SEQ ID NO: 250) (Lactobacillus johnsonii, UniProt A0A7D9N8I3); assay: Apparent steady-state kinetics of L-lactate oxidation with DCIP as electron acceptor; type: biochemical; conditions: L-lactate 0.125 to 64 mM, DCIP 120 μM, 11 mM PBS pH 7.4, 30° C.
T2 sequence (A0A7D9N8I3 1-412): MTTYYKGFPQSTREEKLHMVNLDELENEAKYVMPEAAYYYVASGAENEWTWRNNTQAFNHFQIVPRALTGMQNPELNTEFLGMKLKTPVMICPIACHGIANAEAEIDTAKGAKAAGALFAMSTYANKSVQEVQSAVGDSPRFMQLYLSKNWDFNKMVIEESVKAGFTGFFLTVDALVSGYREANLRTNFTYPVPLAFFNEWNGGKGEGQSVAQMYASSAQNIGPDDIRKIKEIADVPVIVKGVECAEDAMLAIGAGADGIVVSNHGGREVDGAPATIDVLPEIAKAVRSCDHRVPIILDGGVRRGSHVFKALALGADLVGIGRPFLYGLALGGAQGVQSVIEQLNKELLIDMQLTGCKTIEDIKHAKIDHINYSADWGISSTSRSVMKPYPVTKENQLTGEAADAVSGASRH

[4] = molecular target: T3, Gilliamella bombicola lactate dehydrogenase GbLDH, SEQ ID NO: 73, N-terminal 6xHis/HRV 3C tag (SEQ ID NO: 250) (Gilliamella bombicola, UniProt A0A1C4CJ33); assay: as above; type: biochemical; conditions: L-lactate 0.125 to 64 mM, DCIP 120 μM, 11 mM PBS pH 7.4, 30° C.
T3 sequence (A0A1C4CJ33 1-365): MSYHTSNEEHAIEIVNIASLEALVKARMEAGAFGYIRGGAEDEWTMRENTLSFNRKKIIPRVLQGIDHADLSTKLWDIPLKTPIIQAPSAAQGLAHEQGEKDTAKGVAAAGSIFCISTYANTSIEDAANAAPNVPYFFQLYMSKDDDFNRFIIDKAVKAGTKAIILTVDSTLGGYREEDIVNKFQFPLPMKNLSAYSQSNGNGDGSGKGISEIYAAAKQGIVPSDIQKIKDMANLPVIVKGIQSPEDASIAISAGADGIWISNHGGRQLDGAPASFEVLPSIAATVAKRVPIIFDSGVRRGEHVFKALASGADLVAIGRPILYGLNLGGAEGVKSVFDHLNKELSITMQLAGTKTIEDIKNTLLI

[5] = molecular target: T4, Pediococcus acidilactici lactate dehydrogenase PaLDH (PaLCTO), native form, SEQ ID NO: 2 (Pediococcus acidilactici, UniProt E0NE46); conditions: apparent; L-lactate 4 to 500 mM; DCIP 120 μM; 11 mM PBS pH 7.4, 30° C.; per monomeric mass
T4 sequence (E0NE46 1-369): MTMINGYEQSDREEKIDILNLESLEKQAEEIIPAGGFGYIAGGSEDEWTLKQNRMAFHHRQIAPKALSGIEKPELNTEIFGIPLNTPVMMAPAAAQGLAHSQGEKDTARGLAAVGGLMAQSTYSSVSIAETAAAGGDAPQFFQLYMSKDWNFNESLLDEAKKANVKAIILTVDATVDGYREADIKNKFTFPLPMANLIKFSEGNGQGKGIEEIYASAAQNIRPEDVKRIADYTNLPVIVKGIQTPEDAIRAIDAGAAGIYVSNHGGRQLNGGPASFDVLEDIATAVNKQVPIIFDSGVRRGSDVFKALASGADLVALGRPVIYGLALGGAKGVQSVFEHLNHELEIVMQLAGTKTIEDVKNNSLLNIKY

C[C@H](O)C(=O)O = assay: purified protein, by the assay type; conditions: other: apparent, L-lactate 0.125 to 64 mM, DCIP 120 μM, 11 mM PBS pH 7.4, 30° C.

Molecule | Km [1] [mM] | kcat ([1]; per monomeric mass) [s⁻¹] | Km [2] [mM] | kcat ([2]; per monomeric mass) [s⁻¹] | Km [3] [mM] | kcat ([3]; per monomeric mass) [s⁻¹] | Km [4] [mM] | kcat ([4]; per monomeric mass) [s⁻¹] | kcat [5] [s⁻¹] | Km (C[C@H](O)C(=O)O) [mM] | kcat (C[C@H](O)C(=O)O) [s⁻¹] | kcat/Km (C[C@H](O)C(=O)O) [M⁻¹ s⁻¹]
C[C@H](O)C(=O)O [L-lactate] | 0.52 ± 0.09 | 102 ± 8 | 5.67 ± 1.24 | 107 ± 10 | 1.35 ± 0.18 | 47.2 ± 2.0 | 16.9 ± 2.5 | 207 ± 29 | 61.8 ± 8.5 | – | – | –
Enterococcus avium lactate dehydrogenase EaLDH, SEQ ID NO: 155, N-terminal 6xHis/HRV 3C tag (SEQ ID NO: 250) (Enterococcus avium ATCC 14025) | – | – | – | – | – | – | – | – | – | 21.6 ± 2.2 | 94 ± 7.8 | 4350
